Three compounds from US12414958B2, “Medicament and use thereof for treating bacterial infections involving biofilm” (Debiopharm International S.A., priority 2019, dated 2025) can be followed below.

Each structure is given as a SMILES string. Where “and” joins values, the source holds several entries; their conditions need not be identical. Equal entries are not always repeated.

The test system of this assay is S. aureus ATCC 43300 (MRSA). The experiment in a line: Mouse tissue cage model of MRSA infection, 5.5-day treatment (Example 2). The assay is classed as in vivo, Staphylococcus aureus. Particulars: for Cure rate (%) / adherent bacteria reduction from baseline (mean±SD): 24-h biofilm; for Cure rate (%) / adherent bacteria reduction from baseline (mean±SD) / Planktonic day 3 Δlog (individual animal): 5.5-day treatment; for Cure rate (%): cages without growth / total cages; for adherent bacteria reduction from baseline (mean±SD): n=3, given as positive reduction; for Adherent Δlog (individual animal) / Adherent Mean: medium after sonication of explanted tissue cages, day 9 vs day 1; for Adherent Mean: group mean; for day on which bactericidal effect (mean reduction of bacterial load by ≥3 Log10) on planktonic bacteria was exerted: planktonic bacteria in tissue cage fluid, time points day 3, 6, 9; for Planktonic day 3 Mean / Planktonic day 6 Mean / Planktonic day 9 Mean / Planktonic day 6 Δlog (individual animal) / Planktonic day 3 Δlog (individual animal) / Planktonic day 9 Δlog (individual animal): tissue cage fluid; for Planktonic day 3 Mean / Planktonic day 6 Mean / Planktonic day 9 Mean: group mean Δlog from baseline (day 1); for Planktonic day 6 Δlog (individual animal) / Planktonic day 3 Δlog (individual animal) / Planktonic day 9 Δlog (individual animal): reduction from baseline (day 1); for Planktonic day 3 Δlog (individual animal): C57BL/6 mice; for Planktonic day 9 Δlog (individual animal): 3 days after end of treatment. The source says:
The purpose of this study was to evaluate the efficacy of Debio 1450 BES alone and in combination with Daptomycin (DAP) in the mouse tissue cage model of implant-associated infections caused by methicillin resistant Staphylococcus (S.) aureus (MRSA). The efficacy against 24-h biofilm of S. aureus ATCC 43300 (MRSA) was investigated and compared to the standard of care combination of rifampicin (RIF) and DAP at the human equivalent doses. Employing a small initial inoculum (ca. 300 CFU/cage) together with a 24-h biofilm allowed to simulate clinical settings of an acute implant infection and/or surgical debridement.
The tissue cage model of prosthetic joint infections is very well-established and closely mimics the human prosthetic joint infections. This model is based on subcutaneous insertion of tissue cages followed by experimental infection of the foreign body by injection of bacterial inoculum into the cages.
In brief, one sterile polytetrafluorethylene (Teflon) cylinder (32×10 mm), perforated by 130 regularly spaced holes of 1 mm diameter (tissue cages; Angst-Pfister AG, Zürich) was aseptically implanted subcutaneously into the back of C57BL/6 mice (minimum weight 20 g). Experiments were started after complete wound healing (minimum 2 weeks after surgery). For the efficacy study presented here the cages in all animals were infected with around 300 colony-forming units (CFU) of the MRSA strain ATCC 43300 per cage and the biofilm were developed for 24 h before the beginning of the treatment.
The animals received antibiotic treatment i.p. (Debio 1450 BES and DAP) or sc (RIF) on day 1, 2, 3, 4, 5, and 6 (only the morning administration on day 6). One group received only 5% glucose and served as infected, untreated control group (vehicle). […] Debio 1450 and vehicle were administered bid, and qdam on day 6. DAP and RIF were administered qdam. The 50 mg/kg dose of Debio 1450 BES was selected as the HED. The DAP dose of […] was chosen as it closely correlates with the human clinical dosage of 10 mg/kg once daily. The RIF dose of 25 mg/kg is among the most commonly used in the treatment of experimental biofilm infections.
Five to 6 days before infection, TCF is aspirated to ascertain the sterility of implanted cages by TCF plating on blood agar plates. […] In addition, the number of bacteria in TCF was determined on day 3 (before the first injection that day), on day 6 (before last treatment), and on day 9 (before explantation of the cages) to evaluate the treatment efficacy against planktonic bacteria. The mouse number and bacterial count for the given cage were reported to analyse the time course of antibacterial activity of the tested drugs. The efficacy against biofilm-embedded bacteria was assessed qualitatively and quantitatively following aseptic explantation of the tissue cages 3 days after the completion of treatment. The 3 days of resting period will help to avoid the antibiotic carryover effect. Upon explantation, cages were washed twice with phosphate buffered saline (PBS) (Lot #5060914) and immediately transferred into 5 mL 0.9% NaCl (Lot #L161619 or L162658). Following 30 s vortexing, sonication (3 min at 130 W), and an additional 30 s vortexing step the numbers of bacteria dispersed from biofilm was determined by plating. The sonicated cages were washed once with PBS, transferred into 5 mL TSB (Lot #0286463), and incubated for 48 h at 37° C., with an additional vortexing step after 24 h of incubation. After the incubation, tubes were vortexed again and bacterial regrowth was assessed visually. In addition, 100 μL of each culture was plated on blood agar plates to ascertain the regrowth. A positive culture was defined as a treatment failure. The efficacy of treatment against adherent bacteria is expressed as the cure rate (in percent), defined as the number of cages without growth divided by the total number of cages in the individual treatment group.

Take `Cc1c(CN(C)C(=O)/C=C/c2cnc3c(c2)CCC(=O)N3COP(=O)(O)O)oc2ccccc12` [Debio 1450, {6-[(1E)-3-{methyl [(3-methyl-1-benzofuran-2-yl)methyl]amino}-3-oxoprop-1-en-1-yl]-2-oxo-3,4-dihydro-1,8-naphthyridin-1 (2H)-yl} methyl dihydrogen phosphate]: the “Cure rate (%)” value is reported as 50%; the “adherent bacteria reduction from baseline (mean±SD)” value stood at 3.81±1.15 log 10 CFU/mL; the “Adherent Δlog (individual animal)” value is −4.48 log 10 CFU/mL (2×) and −2.48 log 10 CFU/mL; the “Adherent Mean” value is on record as −3.81 log 10 CFU/mL. Moreover, the “day on which bactericidal effect (mean reduction of bacterial load by ≥3 Log10) on planktonic bacteria was exerted” value is 6 day, the “Planktonic day 3 Mean” value is −2.62 Log10, the “Planktonic day 6 Mean” value is −4.45 Log10 and the “Planktonic day 9 Mean” value is −3.90 Log10. Further, the “Planktonic day 6 Δlog (individual animal)” value (from here on “Planktonic day 6 Δlog”) was −3.24 Log10 and −2.69 Log10 and −5.64 Log10 and −5.10 Log10 and −4.91 Log10 and −5.09 Log10; the “Planktonic day 3 Δlog (individual animal)” value (from here on “Planktonic day 3 Δlog”) was −1.42 Log10 and −1.40 Log10 and −2.10 Log10 and −5.10 Log10 and −1.93 Log10 and −3.79 Log10; the “Planktonic day 9 Δlog (individual animal)” value (from here on “Planktonic day 9 Δlog”) is −5.85 Log10 and −3.41 Log10 and −1.32 Log10 and −5.10 Log10 and −4.91 Log10 and −2.79 Log10.

Consider `CCCCCCCCCC(=O)N[C@@H](Cc1c[nH]c2ccccc12)C(=O)N[C@H](CC(N)=O)C(=O)N[C@@H](CC(=O)O)C(=O)N[C@@H]1C(=O)NCC(=O)N[C@@H](CCCN)C(=O)N[C@@H](CC(=O)O)C(=O)N[C@H](C)C(=O)N[C@@H](CC(=O)O)C(=O)NCC(=O)N[C@H](CO)C(=O)N[C@@H]([C@H](C)CC(=O)O)C(=O)N[C@@H](CC(=O)c2ccccc2N)C(=O)O[C@@H]1C` [Daptomycin], for which the “Cure rate (%)” value was 33%, the “Adherent Mean” value is −3.91 log 10 CFU/mL, the “day on which bactericidal effect (mean reduction of bacterial load by ≥3 Log10) on planktonic bacteria was exerted” value worked out at 3 day and the “Planktonic day 3 Mean” value is listed as −3.10 Log10. For the same compound, the “Planktonic day 6 Mean” value is listed as −4.91 Log10 and the “Planktonic day 9 Mean” value was −3.60 Log10. Where the note is “listed as DAP”, the “Adherent Δlog (individual animal)” value is −4.48 log 10 CFU/mL (2×) and −2.78 log 10 CFU/mL; the “Planktonic day 3 Δlog” value was −2.41 Log10 and −4.79 Log10 and −0.67 Log10 and −5.15 Log10 and −2.91 Log10 and −2.70 Log10; the “Planktonic day 9 Δlog” value is −1.07 Log10 and −4.79 Log10 and 0.73 Log10 and −5.15 Log10 and −5.95 Log10 and −5.38 Log10; the “Planktonic day 6 Δlog” value was −5.72 Log10 and −4.79 Log10 and −2.46 Log10 and −5.15 Log10 and −5.95 Log10 and −5.38 Log10.

`CO[C@H]1/C=C/O[C@@]2(C)Oc3c(C)c(O)c4c(O)c(c(/C=N/N5CCN(C)CC5)c(O)c4c3C2=O)NC(=O)/C(C)=C\C=C\[C@H](C)[C@H](O)[C@@H](C)[C@@H](O)[C@@H](C)[C@H](OC(C)=O)[C@@H]1C` [Rifampicin]: the “Cure rate (%)” value came to 100%, the “adherent bacteria reduction from baseline (mean±SD)” value came out at 3.37±0 log 10 CFU/mL, the “Adherent Δlog (individual animal)” value is −3.4 log 10 CFU/mL and the “Adherent Mean” value is listed as −3.37 log 10 CFU/mL. For the same compound, the “day on which bactericidal effect (mean reduction of bacterial load by ≥3 Log10) on planktonic bacteria was exerted” value was found to be 3 day, the “Planktonic day 3 Mean” value is recorded as −4.53 Log10, the “Planktonic day 6 Mean” value is on record as −4.53 Log10 and the “Planktonic day 9 Mean” value is recorded as −4.53 Log10. Under “listed as RIF”, the “Planktonic day 3 Δlog” value was −4.08 Log10 and −6.73 Log10 and −3.5 Log10 and −3.4 Log10 and −4.9 Log10; the “Planktonic day 9 Δlog” value was −4.08 Log10 and −6.73 Log10 and −3.5 Log10 and −3.4 Log10 and −4.9 Log10; the “Planktonic day 6 Δlog” value was −4.08 Log10 and −6.73 Log10 and −3.5 Log10 and −3.4 Log10 and −4.9 Log10.
